The record followed here is patent publication US8658661B2, “Oxadiazole inhibitors of leukotriene production” (Boehringer Ingelheim International GmbH, priority 2010, dated 2014).

Assay [1] has as its system synthesis of LTB4 in human whole blood. Put plainly: Human whole blood assay (inhibition of LTB4 synthesis, calcimycin stimulated). The format is cell-based. Conditions: heparinized human whole blood, calcimycin 20 μM, plasma LTB4. The essentials:
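Whole-blood cellular format, heparinized human donors: 15 min compound pretreatment, then 30 min calcimycin stimulation (20 μM final), both at 37° C. Low-speed centrifugation yields plasma, in which LTB4 is read by homogeneous time-resolved fluorescence immunoassay.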

The target in assay [2] is T1, recombinant human FLAP protein (Homo sapiens, UniProt P20292).
T1 construct: made in house; host or cells: Sf9 insect cells (100,000×g membrane pellet used)
T1 sequence (P20292 1-161): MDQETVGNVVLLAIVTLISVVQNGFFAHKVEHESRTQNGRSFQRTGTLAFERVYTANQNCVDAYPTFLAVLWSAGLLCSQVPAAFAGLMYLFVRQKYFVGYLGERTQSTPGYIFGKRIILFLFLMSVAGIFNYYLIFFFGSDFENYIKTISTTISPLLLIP
Put plainly: FLAP binding assay (SPA, displacement of [125I]L-691,831). Particulars: membranes of sf9 cells expressing recombinant human FLAP; [125I]L-691,831 probe; read-out: FLAP binding IC50. The essentials: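 Membranes from sf9 cells expressing human FLAP in pH 7.5 Tris buffer (MgCl2, EDTA, PMSF). Non-specific binding defined with 10 μM cold L-691,831.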
On the technique in general: In a radioligand displacement assay an active substance lowers the binding of a labelled ligand.

For `C[C@](c1ccc(-c2ccc(N)nc2)cc1)(c1noc(-c2cnc(N3CCNCC3)cn2)n1)C1CC1` [Example 268, 5-(4-{(S)-1-Cyclopropyl-1-[5-(3,4,5,6-tetrahydro-2H-[1,2′]bipyrazinyl-5′-yl)-[1,2,4]oxadiazol-3-yl]-ethyl}-phenyl)-pyridin-2-ylamine], the IC50 in assay [1] came to 600 nM; in assay [2], 9.3 nM.

Take `CC(C)[C@](C)(c1ccc(-c2cnc(N)nc2)cc1)c1noc(-c2ccn(C)n2)n1` [Example 16, 5-(4-{(2R)-3-methyl-2-[5-(1-methyl-1H-pyrazol-3-yl)-1,2,4-oxadiazol-3-yl]butan-2-yl}phenyl)pyrimidin-2-amine]: the IC50 in assay [1] was 110 nM; in assay [2] it was 2.5 nM.

As to `CNC(=O)Cn1cc(-c2nc(C(C)(c3ccc(-c4cnc(N)nc4)cc3)C3CCC3)no2)cn1` (stereo not shown) [Example 98, 2-[4-(3-{1-[4-(2-aminopyrimidin-5-yl)phenyl]-1-cyclobutylethyl}-1,2,4-oxadiazol-5-yl)-1H-pyrazol-1-yl]-N-methylacetamide], the IC50 was 570 nM in assay [1] and 12 nM in assay [2].

As to `Cn1cc(-c2nc([C@](C)(c3ccc(-c4cnc(N)nc4)cc3)C3CCC3)no2)cn1` [Example 122, 5-(4-{(1S)-1-cyclobutyl-1-[5-(1-methyl-1H-pyrazol-4-yl)-1,2,4-oxadiazol-3-yl]ethyl}phenyl)pyrimidin-2-amine], the concentration for half-maximal inhibition (IC50) in assay [1] is 3200 nM; in assay [2], 140 nM.

As for `CN(C)C(=O)Cn1cc(-c2nc(C(C)(c3ccc(-c4cnc5[nH]ccc5c4)cc3)C3CC3)no2)cn1` (stereo not shown) [Example 242, 2-[4-(3-{1-Cyclopropyl-1-[4-(1H-pyrrolo[2,3-b]pyridin-5-yl)-phenyl]-ethyl}-[1,2,4]oxadiazol-5-yl)-pyrazol-1-yl]-N,N-dimethyl-acetamide], the IC50 came out at 310 nM in assay [1] and 5.7 nM in assay [2].

On to `CN(C)C(=O)Cn1cc(-c2nc(C(C)(c3ccc(-c4cnc(N)c(C(F)(F)F)c4)cc3)C3CC3)no2)cn1` (stereo not shown) [Example 246, 2-[4-(3-{1-[4-(6-Amino-5-trifluoromethyl-pyridin-3-yl)-phenyl]-1-cyclopropyl-ethyl}-[1,2,4]oxadiazol-5-yl)-pyrazol-1-yl]-N,N-dimethyl-acetamide], for which the 50% inhibitory concentration (IC50) was 430 nM in assay [1] and 19 nM in assay [2].

Turning to `COc1ncc(-c2nc(C(C)(c3ccc(-c4cnc(N)nc4)cc3)C(C)C)no2)cn1` (stereo not shown) [Example 155, 5-(4-{2-[5-(2-methoxypyrimidin-5-yl)-1,2,4-oxadiazol-3-yl]-3-methylbutan-2-yl}phenyl)pyrimidin-2-amine], the figures for the half-inhibitory concentration (IC50) in assay [1] and in assay [2] were 81 nM and 1.9 nM, respectively.

`CN(C)C(=O)Cn1cc(-c2nc([C@@](C)(c3ccc(-c4ccc(N)nc4)cc3)C3CC3)no2)cn1` [Example 172, 2-[4-(3-{(R)-1-[4-(6-Amino-pyridin-3-yl)-phenyl]-1-cyclopropyl-ethyl}-[1,2,4]oxadiazol-5-yl)-pyrazol-1-yl]-N,N-dimethyl-acetamide]: the results for the IC50 in assay [1] and in assay [2] were 66 nM and 1.1 nM, respectively.

As to `Cc1cc(-c2ccc([C@](C)(c3noc(-c4cnn(CC(=O)N(C)C)c4)n3)C3CC3)cc2)cnc1N` [Example 178, 2-[4-(3-{(R)-1-[4-(6-Amino-5-methyl-pyridin-3-yl)-phenyl]-1-cyclopropyl-ethyl}-[1,2,4]oxadiazol-5-yl)-pyrazol-1-yl]-N,N-dimethyl-acetamide], the IC50 in assay [1] stood at 180 nM; in assay [2], 2.2 nM.

With `COCCNc1ccc(-c2nc(C(C)(c3ccc(-c4cnc(N)nc4)cc3)C3CC3)no2)cn1` (stereo not shown) [Example 38, 5-{4-[1-cyclopropyl-1-(5-{6-[(2-methoxyethyl)amino]pyridin-3-yl}-1,2,4-oxadiazol-3-yl)ethyl]phenyl}pyrimidin-2-amine], the figures for the IC50 in assay [1] and in assay [2] were 97 nM and 2.2 nM, respectively.

As to `CC(C)C(C)(c1ccc(-c2cnc(N)nc2)cc1)c1noc(-c2ccc[nH]c2=O)n1` (stereo not shown) [Example 12, 3-(3-{2-[4-(2-aminopyrimidin-5-yl)phenyl]-3-methylbutan-2-yl}-1,2,4-oxadiazol-5-yl)pyridin-2(1H)-one], the IC50 in assay [1] stood at 290 nM; in assay [2], 3.3 nM.

In the case of `CC(C)C(C)(c1ccc(-c2cnc(N)nc2)cc1)c1noc(C(=O)N2CCNCC2)n1` (stereo not shown) [Example 84, (3-{2-[4-(2-aminopyrimidin-5-yl)phenyl]-3-methylbutan-2-yl}-1,2,4-oxadiazol-5-yl)(piperazin-1-yl)methanone], the half-maximal inhibitory concentration (IC50) was 1700 nM in assay [1] and 120 nM in assay [2].

With `CC(C)C(C)(c1ccc(-c2cnc(N)nc2)cc1)c1noc(-c2ccc(N3CCOCC3)nc2)n1` (stereo not shown) [Example 135, 5-[4-(3-methyl-2-{5-[6-(morpholin-4-yl)pyridin-3-yl]-1,2,4-oxadiazol-3-yl}butan-2-yl)phenyl]pyrimidin-2-amine], the IC50 in assay [1] was found to be 250 nM; in assay [2], 1.4 nM.

Turning to `CC(C)C(C)(c1ccc(-c2cnc(N)nc2)cc1)c1noc(N2CCN(C(=O)N(C)C)CC2)n1` (stereo not shown) [Example 269, 4-(3-{1-[4-(2-Amino-pyrimidin-5-yl)-phenyl]-1,2-dimethyl-propyl}-[1,2,4]oxadiazol-5-yl)-piperazine-1-carboxylic acid dimethylamide], the concentration for half-maximal inhibition (IC50) in assay [1] amounted to 230 nM; in assay [2], 24 nM.

As to `CNC(=O)Cn1cc(-c2nc(C(C)(c3ccc(-c4cnc(N)nc4)cc3)C(C)C)no2)cn1` (stereo not shown) [Example 142, 2-[4-(3-{2-[4-(2-aminopyrimidin-5-yl)phenyl]-3-methylbutan-2-yl}-1,2,4-oxadiazol-5-yl)-1H-pyrazol-1-yl]-N-methylacetamide], the IC50 turned out to be 59 nM in assay [1] and 1.1 nM in assay [2].

With `Cn1cc(-c2nc(C(C)(C)c3ccc(-c4cnc(N)nc4)cc3)no2)cn1` [Example 68, 5-(4-{2-[5-(1-methyl-1H-pyrazol-4-yl)-1,2,4-oxadiazol-3-yl]propan-2-yl}phenyl)pyrimidin-2-amine], the IC50 was determined as 93 nM in assay [1] and 6.7 nM in assay [2].

Consider `Cn1cc(-c2nc(C(C)(c3ccc(-c4cnc(N)nc4)cc3)C3CCC3)no2)cn1` (stereo not shown) [Example 33, 5-(4-{1-cyclobutyl-1-[5-(1-methyl-1H-pyrazol-4-yl)-1,2,4-oxadiazol-3-yl]ethyl}phenyl)pyrimidin-2-amine], for which the IC50 in assay [1] was determined as 210 nM; in assay [2], 6.6 nM.

In the case of `CN(C)C(=O)Cn1cc(-c2nc(C(C)(c3ccc(-c4ccc(F)nc4N)cc3)C3CC3)no2)cn1` (stereo not shown) [Example 277, 2-[4-(3-{1-[4-(2-Amino-6-fluoro-pyridin-3-yl)-phenyl]-1-cyclopropyl-ethyl}-[1,2,4]oxadiazol-5-yl)-pyrazol-1-yl]-N,N-dimethyl-acetamide], the IC50 was above 5000 nM in assay [1] and 64 nM in assay [2].

On to `CN(C)C(=O)Cn1cc(-c2nc([C@@](C)(c3ccc(-c4cnc5c(c4)OCCN5)cc3)C3CC3)no2)cn1` [Example 254, 2-[4-(3-{(R)-1-Cyclopropyl-1-[4-(3,4-dihydro-2H-pyrido[3,2-b][1,4]oxazin-7-yl)-phenyl]-ethyl}-[1,2,4]oxadiazol-5-yl)-pyrazol-1-yl]-N,N-dimethyl-acetamide], for which the IC50 in assay [1] amounted to 210 nM; in assay [2], 2.8 nM.

Turning to `Cn1cc(-c2nc([C@@H](c3ccc(-c4cnc(N)nc4)cc3)C(C)(C)C)no2)cn1` [Example 65, 5-(4-{(1R)-2,2-dimethyl-1-[5-(1-methyl-1H-pyrazol-4-yl)-1,2,4-oxadiazol-3-yl]propyl}phenyl)pyrimidin-2-amine], the IC50 in assay [1] stood at 1500 nM; in assay [2], 75 nM.

What is called IC50 is the concentration needed to halve the response being measured.
